The text below walks through data of ChEMBL document CHEMBL5576070, “The recent discovery of a promising pharmacological scaffold derived from carvacrol: A review” (Bioorg Med Chem Lett, 2024).

One test relates to HCT-15. The experiment in a line: Growth inhibition of human HCT-15 cells incubated for 48 hrs by SRB assay. Type of test: functional.
The subject of the next test is MIA PaCa-2. In words: Growth inhibition of human MIA PaCa-2 cells incubated for 48 hrs by SRB assay. Type of test: functional.
Another test deals with Streptococcus pneumoniae. In words: Antibacterial activity against Streptococcus pneumoniae assessed as reduction in bacterial cell growth inhibition by broth microdilution method. Format: functional, organism-based. A general note: Dilution methods test growth across graded concentrations, often in twofold steps.
A further test concerns Enterococcus faecalis. The experiment in a line: Antibacterial activity against Enterococcus faecalis ATCC 10541 assessed as reduction in bacterial growth incubated for 24 hrs by broth microdilution method. Format: functional, organism-based. Conditions: ATCC 10541, 24 h.
The test system of test [1] is Pseudomonas aeruginosa. The experiment in a line: Antibacterial activity against Pseudomonas aeruginosa ATCC 27853 assessed as bacterial growth inhibition measured after 18 hrs by CLSI protocol based two-fold serial microdilution method. Type of test: functional.
Test [2] has as its system Pseudomonas aeruginosa. In words: Bactericidal activity against Pseudomonas aeruginosa ATCC 27853 assessed as reduction in bacterial viability. Type of test: functional.
A short description of test [3]: Antibacterial activity against Salmonella enterica subsp. enterica serovar Pullorum assessed as inhibition of bacterial growth incubated for 18 hrs by CLSI protocol based microbroth dilution method. Type of test: functional.
Test [4] concerns Escherichia coli. The experiment in a line: Antibacterial activity against Escherichia coli ATCC 25922 assessed as zone of inhibition incubated for 24 hrs by agar diffusion method. Type of test: functional. For orientation: A growth-free zone around the sample is the usual read-out of agar diffusion tests.
The test system of test [5] is Escherichia coli. The experiment in a line: Antibacterial activity against Escherichia coli assessed as reduction in bacterial growth by broth microdilution method. Type of test: functional.
The subject of test [6] is Candida albicans. In words: Fungicidal activity against Candida albicans assessed as reduction in fungal growth measured after 48 hrs by CLSI protocol based microdilution method. Type of test: functional.
Test [7] has as its system Candida albicans. In words: Antifungal activity against Candida albicans assessed as reduction in fungal growth incubated for 24 hrs by broth microdilution method. Format: functional.
Test [8] has as its system Bacillus subtilis. The experiment in a line: Antibacterial activity against Bacillus subtilis assessed as zone of inhibition. Type of test: functional.
Another test has as its system Proteus vulgaris. In words: Antimicrobial activity against Proteus vulgaris NCIM 2813 assessed as zone of inhibition incubated for 24 hrs by agar diffusion method. Format: functional.
Test [9] concerns Staphylococcus aureus. The experiment in a line: Antimicrobial activity against Staphylococcus aureus […] assessed as reduction in bacterial growth incubated for 24 hrs by Mueller-Hinton agar based analysis. Format: functional.
Test [10] deals with Staphylococcus epidermidis. In words: Antimicrobial activity against Staphylococcus epidermidis ATCC 12228 assessed as reduction in bacterial growth incubated for 24 hrs by Mueller-Hinton agar based analysis. Format: functional.
Test [11] has as its system Escherichia coli. The experiment in a line: Antibacterial activity against Escherichia coli assessed as reduction in bacterial growth incubated for 24 hrs by Mueller-Hinton agar based analysis. Type of test: functional.
The test system of test [12] is Pseudomonas aeruginosa. The experiment in a line: Antibacterial activity against Pseudomonas aeruginosa ATCC 15442 assessed as reduction in bacterial growth incubated for 24 hrs by Mueller-Hinton agar based analysis. Type of test: functional.
Test [13] relates to Escherichia coli. The experiment in a line: Antibacterial activity against Escherichia coli assessed as reduction in bacterial growth inhibition. Type of test: functional.
The test system of another test is Salmonella typhimurium. In words: Antibacterial activity against Salmonella typhimurium DT104 assessed as reduction in bacterial growth inhibition. Type of test: functional, Salmonella enterica subsp. enterica serovar Typhimurium.
Another test deals with Salmonella enteritidis. In words: Antibacterial activity against Salmonella enterica subsp. enterica serovar Enteritidis assessed as reduction in bacterial growth inhibition. Format: functional.
Test [14] has as its system Clostridium perfringens. In words: Antibacterial activity against Clostridium perfringens assessed as reduction in bacterial growth inhibition. Format: functional.
A short description of test [15]: Antioxidant activity assessed as DPPH radical scavenging activity incubated for 20 mins by spectrophotometric method. Type of test: functional.
The subject of test [16] is Staphylococcus aureus. The experiment in a line: Synergistic antibacterial activity against Staphylococcus aureus ATCC 29213 assessed as fractional inhibitory concentration incubated for 24 hrs in the presence of ampicillin by checkerboard assay. Type of test: functional.
The next test relates to Mus musculus. The experiment in a line: Antinociceptive activity in Swiss mouse assessed as reduction in pain like behavior at 0.003 mg/kg, ip and measured after 1.5 hrs by cold plate test. Set-up: scale not given: the % may be the effect or the level left. Type of test: functional.
For test [17], the system named is Clostridium perfringens. The experiment in a line: Antibacterial activity against Clostridium perfringens assessed as inhibition of bacterial growth incubated for 18 hrs by CLSI protocol based microbroth dilution method. Format: functional.
The subject of test [18] is Staphylococcus epidermidis. In words: Antibacterial activity against Staphylococcus epidermidis ATCC 12228 assessed as reduction in bacterial growth incubated for 18 hrs by two fold serial microdilution method. Format: functional.
In test [19] the test system is Pseudomonas aeruginosa. The experiment in a line: Antibacterial activity against Pseudomonas aeruginosa ATCC 15442 assessed as bacterial growth inhibition measured after 18 hrs by CLSI protocol based two-fold serial microdilution method. Type of test: functional.
Test [20] has as its system Pseudomonas fluorescens. The experiment in a line: Antibacterial activity against Pseudomonas fluorescens assessed as zone of inhibition. Format: functional.
Test [21] has as its system Pseudomonas fluorescens. The experiment in a line: Antibacterial activity against Pseudomonas fluorescens assessed as reduction in bacterial growth. Format: functional.
In test [22] the test system is Escherichia coli. The experiment in a line: Antibacterial activity against Escherichia coli ATCC 25922 assessed as reduction in bacterial growth incubated for 18 to 20 hrs by broth microdilution assay. Conditions: time 18-20 hrs. Format: functional.
Test [23] concerns Staphylococcus aureus. The experiment in a line: Antibacterial activity against Staphylococcus aureus ATCC 29213 assessed as bacterial growth inhibition measured after 18 hrs by CLSI protocol based two-fold serial microdilution method. Type of test: functional.
The test system of test [24] is Bacillus subtilis. In words: Antibacterial activity against Bacillus subtilis assessed as reduction in bacterial growth incubated for 20 hrs by broth microdilution assay. Type of test: functional.

Converted amounts (≈) assume the structure as drawn.

What is called GI50 is the concentration that inhibits growth by half. `COc1cccc2c1C(=O)c1c(O)c3c(c(O)c1C2=O)C[C@@](O)(C(=O)CO)C[C@@H]3O[C@H]1C[C@H](N)[C@H](O)[C@H](C)O1.Cl` [DOXORUBICIN HYDROCHLORIDE]: the GI50 in the test with HCT-15 and in the test on MIA PaCa-2 was 80 µg/mL in each case.

In general, IC50 refers to the concentration at which inhibition is half-maximal. On to `Cc1ccc(C(C)C)cc1OCc1cn(-c2ccc(C(=O)O)cc2)nn1`, for which the IC50 with Streptococcus pneumoniae and in the test with Enterococcus faecalis was 15 µg/mL (≈ 42.7 µM) each time.

For orientation: MBC means the smallest concentration meeting the test's criterion for killing. On to `Cc1cc(Cl)c(C(C)C)cc1O`, for which the MIC in the test with Pseudomonas aeruginosa [1] is 3.44 µg/mL (≈ 18.6 µM). For the same compound, in the test with Pseudomonas aeruginosa [2], the MBC was found to be 6.87 µg/mL (≈ 37.2 µM).

For `Cc1ccc(C(C)C)cc1OC1CC[C@H](O)[C@@H](CO)O1` (some centres undefined), the MIC in test [3] turned out to be 0.5 µg/mL (≈ 1.78 µM).

`Cc1ccc(C(C)C)cc1OCC(=O)NNS(=O)(=O)c1cccc(C(F)(F)F)c1`: the “inhibition zone (IZ)” value with Escherichia coli [4] is given as 10 mm.

What is called MFC is the lowest tested concentration that kills the fungus rather than only halting it. Regarding `Cc1ccc(C(C)C)cc1O` [CARVACROL], the MIC came out at 450 µg/mL (≈ 3000 µM) in the test with Escherichia coli [5]; 256 µg/mL (≈ 1700 µM) with Candida albicans [7]; 0.6 µg/mL (≈ 3.99 µM) in the test with Staphylococcus aureus [9]; 0.3 µg/mL (≈ 2 µM) in test [10]; 0.6 µg/mL (≈ 3.99 µM) in the test on Escherichia coli [11]; 5 µg/mL (≈ 33.3 µM) in the test with Pseudomonas aeruginosa [12]. The MIC is less than 0.09 %v/v with Escherichia coli [13], 0.37 %v/v in the test with Salmonella typhimurium, less than 0.09 %v/v with Salmonella enteritidis and less than 0.09 %v/v in the test with Clostridium perfringens [14]. Moreover, the MFC in the test with Candida albicans [6] was 512 µg/mL (≈ 3410 µM). For the same compound, the “inhibition zone (IZ)” value in the test on Bacillus subtilis [8] is reported as 13 mm; in the test with Proteus vulgaris, 7 mm. In addition, the IC50 in test [15] is 267 µg/mL (≈ 1780 µM).

For `Cc1cc(S(=O)(=O)Nc2ccc(F)cc2)c(C(C)C)cc1O`, in the test on Staphylococcus aureus [16], the FIC is listed as 0.5.

For `Cc1ccc(C(C)C)cc1OCC(=O)NNS(=O)(=O)c1ccc(Cl)cc1`, in the test with Escherichia coli [4], the “inhibition zone (IZ)” value was 10 mm.

On to `Cc1c(O)cc(C(C)C)cc1S(=O)(=O)N1CCOCC1`, for which the Activity in the test on Mus musculus is on record as 62%.

As for `C=CCOc1cc(C(C)C)ccc1C`, the MIC with Clostridium perfringens [17] and in the test on Pseudomonas aeruginosa [1] was 110 µg/mL (≈ 578 µM) in each case.

On to `COc1cc(C(C)C)ccc1C`, for which the MIC came out at 0.06 µM (≈ 0.00985 µg/mL) in test [18]; 0.49 µM (≈ 0.0805 µg/mL) in the test on Pseudomonas aeruginosa [19]; 250 µg/mL (≈ 1520 µM) with Pseudomonas fluorescens [21]; 250 µg/mL (≈ 1520 µM) with Escherichia coli [22]; 250 µg/mL (≈ 1520 µM) with Staphylococcus aureus [23]; 250 µg/mL (≈ 1520 µM) with Bacillus subtilis [24]. Also, in the test with Pseudomonas fluorescens [20], the “inhibition zone (IZ)” value worked out at 15 mm.
